Experimental findings from patent publication US6573275B1, “Bicyclic amines” (Syngenta Limited, priority 1995, dated 2003) are described below.

Molecules are shown by their SMILES.

In the data set the test system is peach aphid (Myzus persicae). The data set is described as follows: Insecticidal test against peach aphid, infested Chinese cabbage leaves sprayed. In kind it is in vivo. To be noted: peach aphid (Myzus persicae) on Chinese cabbage leaves, sprayed with 500 ppm composition unless otherwise stated, mortality assessed after 3 days. The procedure:
This Example illustrates the insecticidal properties of the compounds of Formula I. The activity of the compounds of Formula I was determined using a variety of pests. The pests were treated with a liquid composition containing 500 parts per million (ppm) by weight of the compound unless otherwise stated. The compositions were made by dissolving the compound in acetone and ethanol (50:50) mixture and diluting the solutions with water containing 0.05% by weight of a wetting agent sold under the trade name “SYNPERONIC” NP8 until the liquid composition contained the required concentration of the compound. “SYNPERONIC” is a Registered Trade Mark.
The test procedure adopted with regard to each pest was basically the same and comprised supporting a number of the pests on a medium which was usually a substrate, a host plant or a foodstuff on which the pests feed, and treating either or both the medium and the pests with the compositions. The mortality of the pests was then assessed at periods usually varying from two to five days after the treatment.
In this test Chinese cabbage leaves were infested with aphids, the infested leaves were sprayed with the test composition, and the mortality assessed after 3 days.
Take `N#CC1(c2cncc(Cl)c2)CC2CCC(C1)N2C(=O)c1ccc(Cl)cc1` (centres unmarked) [Compound 97]: the “Score (grading of mortality)” value was “C (C indicates less than 40% mortality)”.
In the case of `N#CC1(c2cncc(Cl)c2)CC2CCC(C1)N2C(=O)c1ccc(F)cc1` (centres unmarked) [Compound 98], the “Score (grading of mortality)” value is “A (A indicates 80-100% mortality)”.
On to `N#CC1(c2cncc(Cl)c2)CC2CCC(C1)N2CCCF` (centres unmarked) [Compound 99], for which the “Score (grading of mortality)” value is given as “A (A indicates 80-100% mortality)”.
As for `N#CC1(c2cncc(Cl)c2)CC2CCC(C1)N2Cc1ccc(C(F)(F)F)cc1C(F)(F)F` (centres unmarked) [Compound 100], the “Score (grading of mortality)” value is reported as “A (A indicates 80-100% mortality)”.
With `N#CC1(c2cncc(Cl)c2)CC2CCC(C1)N2Cc1ccc(C(=O)O)cc1` (centres unmarked) [Compound 101] the entry was “A (A indicates 80-100% mortality)”; with `CC=COc1cncc(C2(C#N)CC3CCC(C2)N3C)c1` (centres unmarked) [Compound 102], “A (A indicates 80-100% mortality)”; with `N#CC1(c2cncc(Cl)c2)CC2CCC(C1)N2Cc1cccc(F)c1F` (centres unmarked) [Compound 103], “A (A indicates 80-100% mortality)”.
The same measure for `N#CC1(c2cncc(Cl)c2)CC2CCC(C1)N2CCc1ccccc1` (stereo not drawn) [Compound 104, exo-3-(5-chloropyrid-3-yl)-endo-3-cyano-8-(2-phenylethyl)-8-azabicyclo[3.2.1]octane]: “A (A indicates 80-100% mortality)”; for `N#Cc1ccc(N2C3CCC2CC(C#N)(c2cncc(Cl)c2)C3)cc1` (centres unmarked) [Compound 105]: “B (B indicates 40-79% mortality)”; for `N#CC1(c2cncc(Cl)c2)CC2CCC(C1)N2CC=C(F)F` (stereo not drawn) [Compound 106, exo-3-(5-chloropyrid-3-yl)-endo-3-cyano-8-(3,3-difluoroprop-2-en-1-yl)-8-azabicyclo[3.2.1]octane]: “A (A indicates 80-100% mortality)”.
Take `N#CC1(c2cncc(Cl)c2)CC2CCC(C1)N2CC(=O)O` (centres unmarked) [Compound 107]: the “Score (grading of mortality)” value is on record as “A (A indicates 80-100% mortality)”.
The same measure for `N#CC1(c2cncc(Cl)c2)CC2CCC(C1)N2Cc1cc(Br)cc(Br)c1` (centres unmarked) [Compound 108]: “A (A indicates 80-100% mortality)”.
`N#CC1(c2cncc(Cl)c2)CC2CCC(C1)N2Cc1ccc(F)c(Cl)c1` (stereo not drawn) [Compound 109, exo-3-(5-chloropyrid-3-yl)-endo-3-cyano-8-(3-chloro-4-fluorobenzyl)-8-azabicyclo[3.2.1]octane]: the “Score (grading of mortality)” value is reported as “A (A indicates 80-100% mortality)”.
The same measure for `N#CC1(c2cncc(Cl)c2)CC2CCC(C1)N2C=O` (stereo not drawn) [Compound 110, exo-3-(5-chloropyrid-3-yl)-endo-3-cyano-8-formyl-8-azabicyclo[3.2.1]octane]: “A (A indicates 80-100% mortality)”; for `CC(C)OC(=O)N1C2CCC1CC(C#N)(c1cncc(Cl)c1)C2` (centres unmarked) [Compound 111]: “A (A indicates 80-100% mortality)”.
Turning to `N#CC1(c2cncc(Cl)c2)CC2CCC(C1)N2S(=O)(=O)c1ccccc1` (centres unmarked) [Compound 112], the “Score (grading of mortality)” value is listed as “B (B indicates 40-79% mortality)”.
As for `N#CC1(c2cncc(Cl)c2)CC2CCC(C1)N2Cc1c(F)cc(F)cc1F` (centres unmarked) [Compound 113], the “Score (grading of mortality)” value is “A (A indicates 80-100% mortality)”.
In the case of `N#CC1(c2cncc(Cl)c2)CC2CCC(C1)N2Cc1c(F)ccc(F)c1F` (centres unmarked) [Compound 114], the “Score (grading of mortality)” value is “A (A indicates 80-100% mortality)”.
With `N#CC(c1ccccc1)N1C2CCC1CC(C#N)(c1cncc(Cl)c1)C2` (stereo not drawn) [Compound 115, exo-3-(5-chloropyrid-3-yl)-endo-3-cyano-8-(a-cyanobenzyl)-8-azabicyclo[3.2.1]octane] the entry was “A (A indicates 80-100% mortality)”; with `COC(=O)N1C2CCC1CC(C#N)(c1cncc(Cl)c1)C2` (centres unmarked) [Compound 116], “A (A indicates 80-100% mortality)”.
Take `N#CC1(c2cncc(Cl)c2)CC2CCC(C1)N2Cc1ccccn1` (stereo not drawn) [Compound 117, exo-3-(5-chloropyrid-3-yl)-endo-3-cyano-8-(pyrid-2-ylmethyl)-8-azabicyclo[3.2.1]octane]: the “Score (grading of mortality)” value is “A (A indicates 80-100% mortality)”.
The same measure for `N#CC1(c2cncc(Cl)c2)CC2CCC(C1)N2Cc1cccnc1` (centres unmarked) [Compound 118]: “A (A indicates 80-100% mortality)”.
The same measure for `N#CC1(c2cncc(Cl)c2)CC2CCC(C1)N2Cc1ccncc1` (centres unmarked) [Compound 119]: “A (A indicates 80-100% mortality)”.
With `N#CC1(c2ccccn2)CC2CCC(C1)N2CCF` (centres unmarked) [Compound 120] the entry was “A (A indicates 80-100% mortality)”.
`C[C@H](c1ccccc1)N1C2CCC1CC(C#N)(c1cncc(Cl)c1)C2` (stereo partly drawn) [Compound 121, (R)-exo-3-(5-chloropyrid-3-yl)-endo-3-cyano-8-(1-phenylethyl)-8-azabicyclo[3.2.1]octane]: the “Score (grading of mortality)” value is listed as “A (A indicates 80-100% mortality)”.
`C[C@@H](c1ccccc1)N1C2CCC1CC(C#N)(c1cncc(Cl)c1)C2` (some centres unmarked) [Compound 122]: the “Score (grading of mortality)” value was “A (A indicates 80-100% mortality)”.
`Cc1nc(CN2C3CCC2CC(C#N)(c2cncc(Cl)c2)C3)cs1` (stereo not drawn) [Compound 123, exo-3-(5-chloropyrid-3-yl)-endo-3-cyano-8-((2-methylthiazol-4-yl)methyl)-8-azabicyclo[3.2.1]octane]: the “Score (grading of mortality)” value is on record as “A (A indicates 80-100% mortality)”.
Take `Cc1noc(C)c1CN1C2CCC1CC(C#N)(c1cncc(Cl)c1)C2` (stereo not drawn) [Compound 124, exo-3-(5-chloropyrid-3-yl)-endo-3-cyano-8-((3,5-dimethylisoxazol-4-yl)methyl)-8-azabicyclo[3.2.1]octane]: the “Score (grading of mortality)” value is recorded as “A (A indicates 80-100% mortality)”.
With `N#CC1(c2cncc(Cl)c2)CC2CCC(C1)N2Cc1ccc(Cl)s1` (centres unmarked) [Compound 125] the entry was “A (A indicates 80-100% mortality)”; with `N#CC1(c2cncc(Cl)c2)CC2CCC(C1)N2c1ccc(C(F)(F)F)cn1` (centres unmarked) [Compound 126], “C (C indicates less than 40% mortality)”; with `N#CC1(c2cncc(Cl)c2)CC2CCC(C1)N2c1cccc(F)n1` (stereo not drawn) [Compound 128, exo-3-(5-chloropyrid-3-yl)-endo-3-cyano-8-(6-fluoropyrid-2-yl)-8-azabicyclo[3.2.1]octane], “A (A indicates 80-100% mortality)”.
With `N#CC1(c2cncc(Cl)c2)CC2CCC(C1)N2c1ccc(F)cc1` (centres unmarked) [Compound 129], the “Score (grading of mortality)” value is on record as “A (A indicates 80-100% mortality)”.
On to `N#CC1(c2cncc(Cl)c2)CC2CCC(C1)N2CC(F)(F)C(F)(F)F` (centres unmarked) [Compound 130], for which the “Score (grading of mortality)” value is listed as “A (A indicates 80-100% mortality)”.
With `N#CC1(c2cncc(Cl)c2)CC2CCC(C1)N2CC(F)(F)C(F)F` (centres unmarked) [Compound 131] the entry was “A (A indicates 80-100% mortality)”; with `N#CC1(c2cncc(Cl)c2)CC2CCC(C1)N2CC(F)(F)C(F)(F)C(F)(F)F` (centres unmarked) [Compound 132], “A (A indicates 80-100% mortality)”.
Take `N#CC1(c2cncc(Cl)c2)CC2CCC(C1)N2CC(F)(F)C(F)(F)C(F)(F)C(F)F` (centres unmarked) [Compound 133]: the “Score (grading of mortality)” value is reported as “A (A indicates 80-100% mortality)”.
With `CN1C2CCC1CC(C#N)(c1cncc(N)c1)C2` (stereo not drawn) [Compound 134, exo-3-(5-aminopyrid-3-yl)-endo-3-cyano-8-methyl-8-azabicyclo[3.2.1]octane], the “Score (grading of mortality)” value is “A (A indicates 80-100% mortality)”.
With `N#CC1(c2cncc(Cl)c2)CC2CCC(C1)N2C(C(N)=O)c1ccccc1` (stereo not drawn) [Compound 135, exo-3-(5-chloropyrid-3-yl)-endo-3-cyano-8-(a-carbamylbenzyl)-8-azabicyclo[3.2.1]octane] the entry was “A (A indicates 80-100% mortality)”.
Take `N#CC1(c2cncc(Cl)c2)CC2CCC(C1)N2c1cccc(C(F)(F)F)n1` (centres unmarked) [Compound 136]: the “Score (grading of mortality)” value is on record as “C (C indicates less than 40% mortality)”.
With `N#CC1(c2cncc(Cl)c2)CC2CCC(C1)N2c1cccc(Cl)n1` (centres unmarked) [Compound 137] the entry was “C (C indicates less than 40% mortality)”; with `N#CC1(c2cncc(Cl)c2)CC2CCC(C1)N2C(=S)S` (stereo not drawn) [Compound 138, exo-3-(5-chloropyrid-3-yl)-endo-3-cyano-8-(mercaptothiocarbonyl)-8-azabicyclo[3.2.1]octane], “A (A indicates 80-100% mortality)”.
The same measure for `CC(C)(C)N1C2CCC1CC(C#N)(c1cncc(Cl)c1)C2` (stereo not drawn) [Compound 139, exo-3-(5-chloropyrid-3-yl)-endo-3-cyano-8-(tert-butyl)-8-azabicyclo[3.2.1]octane]: “A (A indicates 80-100% mortality)”; for `CCOC(=O)CCN1C2CCC1CC(C#N)(c1cncc(Cl)c1)C2` (stereo not drawn) [Compound 140, exo-3-(5-chloropyrid-3-yl)-endo-3-cyano-8-(2-(ethoxycarbonyl)ethyl)-8-azabicyclo[3.2.1]octane]: “A (A indicates 80-100% mortality)”.
The same measure for `N#CC1(c2cncc(Cl)c2)CC2CCC(C1)N2CCC(=O)O` (stereo not drawn) [Compound 141, exo-3-(5-chloropyrid-3-yl)-endo-3-cyano-8-(2-carboxyethyl)-8-azabicyclo[3.2.1]octane]: “A (A indicates 80-100% mortality)”.
